From patent publication US20260070945A1, “MACROCYCLIC IMMUNOMODULATORS” (Bristol-Myers Squibb Company, priority 2022, published 2026)
*1 amine or outer side, *2 acyl side, *3 side chain or, on linkers, in order; H or OH if unused. Where a SMILES comes first, the peptide text is derived from it. Bridges are numbered along the chain shown (N, C = ends). [ ]: non-standard residue; d: D form. The star is where a group is joined. ξ: configuration not given here. Phe(3-CF3) = N[C@@H](Cc1cccc(C(F)(F)F)c1)C(=O)O; Phe(4-COOH) = N[C@@H](Cc1ccc(C(=O)O)cc1)C(=O)O; Bip = N[C@@H](Cc1ccc(-c2ccccc2)cc1)C(=O)O; Phe(3-Me) = Cc1cccc(C[C@H](N)C(=O)O)c1; γGlu = O=C(O)[C@H](CCC(=O)[*:2])N[*:1]; NH(CH2)12COOH = O=C(O)CCCCCCCCCCCCN*; Val(3-OH) = CC(C)(O)[C@H](N)C(=O)O; 4Pal = N[C@@H](Cc1ccncc1)C(=O)O; Cha = N[C@@H](CC1CCCCC1)C(=O)O; Cit = NC(=O)NCCC[C@H](N)C(=O)O; Thr(3ξ) = CC(O)[C@H](N)C(=O)O; Carboxymethyl = O=C(O)C*; NMeA = CN[C@@H](C)C(=O)O; Orn = NCCC[C@H](N)C(=O)O; Aun = NCCCCCCCCCCC(=O)O; Dab = NCC[C@H](N)C(=O)O; AEEA = NCCOCCOCC(=O)O; Ac3c = NC1(C(=O)O)CC1

These compounds were tested against T1, PD-1/PD-L1 interaction (PE-labeled human PD-L1-Ig binding to Jurkat cell line over-expressing human PD-1) (Homo sapiens, UniProt Q15116) (assay: Jurkat-PD-1 Cell Binding High-Content Screening Assay (CBA)). Conditions: Jurkat-hPD-1 cells, PE-labeled PD-L1-Ig 20 nM final; read-out: Jurkat HPD1 PDL1 IC50.
T1 construct: expressed in transfected cells; host or cells: Jurkat
T1 sequence (Q15116 25-288): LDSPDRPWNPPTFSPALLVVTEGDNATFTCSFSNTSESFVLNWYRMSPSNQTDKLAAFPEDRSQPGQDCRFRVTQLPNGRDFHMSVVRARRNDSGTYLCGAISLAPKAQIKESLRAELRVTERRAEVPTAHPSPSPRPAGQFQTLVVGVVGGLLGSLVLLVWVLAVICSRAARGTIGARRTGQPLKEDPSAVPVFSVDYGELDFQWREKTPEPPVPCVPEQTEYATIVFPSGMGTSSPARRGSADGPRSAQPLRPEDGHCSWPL
Summary of the method: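 Cells 8×10^3/well, DMEM + 10% FCS; cpd 2 h, 37 °C; PE–PD-L1-Ig 20 nM final, 1 h; PFA fix + Hoechst 33342, 3× dPBS wash; high-content imager.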

| SMILES | IC50 [nM] |
| --- | --- |
| CC(C)C[C@@H]1NC(=O)[C@H](Cc2c[nH]c3ccccc23)NC(=O)[C@H](CC(=O)O)NC(=O)[C@H](Cc2ccc(C(=O)O)cc2)NC(=O)[C@H](Cc2ccc(OCC(=O)O)cc2)NC(=O)CSC[C@@H](C(=O)NCCOCCOCC(=O)NCCCCCCCCCCC(=O)O)NC(=O)[C@H](CCCNC(N)=O)NC(=O)[C@H](C(C)(C)O)NC(=O)[C@H](CC2CCCCC2)NC(=O)[C@H](CCN)NC(=O)[C@@H](CC(C)C)NC(=O)[C@H](C)N(C)C(=O)[C@H](C(C)C)NC(=O)[C@H](Cc2ccc(-c3ccccc3)cc2)NC1=O [Example 1111] ({CH2CO}-Y(Carboxymethyl)[Phe(4-COOH)]DWL[Bip]V[NMeA][dL][Dab][Cha][Val(3-OH)][Cit]C[AEEA][Aun]-OH; thioether N-14) | 9.1 |
| CC(C)C[C@H]1NC(=O)[C@H](C)N(C)C(=O)[C@H](Cc2ccc(OCC(=O)O)cc2)NC(=O)[C@H](Cc2ccc(-c3ccccc3)cc2)NC(=O)[C@H](Cc2ccc(OCC(=O)O)cc2)NC(=O)[C@H](Cc2c[nH]c3ccccc23)NC(=O)[C@H](CC(=O)O)NC(=O)[C@H](Cc2ccc(OCC(=O)O)cc2)NC(=O)[C@H]([C@@H](C)O)NC(=O)CSC[C@@H](C(=O)N[C@@H](CCCN)C(=O)NCCOCCOCC(=O)NCCCCCCCCCCC(=O)O)NC(=O)[C@H]([C@@H](C)O)NC(=O)[C@H](C(C)C)NC(=O)[C@H](CC2CCCCC2)NC(=O)[C@H](CC(N)=O)NC1=O [Example 1387] ({CH2CO}-TY(Carboxymethyl)DWY(Carboxymethyl)[Bip]Y(Carboxymethyl)[NMeA][dL]N[Cha]VTC[Orn][AEEA][Aun]-OH; thioether N-14) | 401 |
| CC(C)C[C@@H]1NC(=O)[C@H](Cc2c[nH]c3ccccc23)NC(=O)[C@H](CC(=O)O)NC(=O)[C@H](Cc2ccncc2)NC(=O)[C@H](Cc2ccc(OCC(=O)O)cc2)NC(=O)CSC[C@@H](C(=O)N[C@@H](CCN)C(=O)NCCCCCCCCCCC(=O)O)NC(=O)[C@H](CO)NC(=O)[C@H](C(C)C)NC(=O)[C@H](CC2CCCCC2)NC(=O)[C@H](CCN)NC(=O)[C@@H](CC(C)C)NC(=O)[C@H](C)N(C)C(=O)[C@H](C(C)C)NC(=O)[C@H](Cc2ccc(-c3ccccc3)cc2)NC1=O [Example 1083] ({CH2CO}-Y(Carboxymethyl)[4Pal]DWL[Bip]V[NMeA][dL][Dab][Cha]VSC[Dab][Aun]-OH; thioether N-14) | 15.7 |
| Cc1cccc(C[C@@H]2NC(=O)[C@H](CC(=O)O)NC(=O)[C@H](Cc3ccc(C(=O)O)cc3)NC(=O)[C@H](Cc3ccc(OCC(=O)O)cc3)NC(=O)CSC[C@@H](C(=O)NCC(=O)N[C@@H](CCC(=O)O)C(=O)NCCOCCOCC(=O)N[C@@H](CCC(=O)NCCOCCOCC(=O)NCCCCCCCCCCC(=O)O)C(=O)O)NC(=O)[C@H](CO)NC(=O)[C@H](C(C)C)NC(=O)[C@H](CC(C)C)NC(=O)[C@H](CC(N)=O)NC(=O)[C@@H](CC(C)C)NC(=O)[C@H](C)N(C)C(=O)[C@H](C(C)C)NC(=O)[C@H](Cc3ccc(-c4ccccc4)cc3)NC(=O)[C@H](CC(C)C)NC2=O)c1 [Example 1018] ({CH2CO}-Y(Carboxymethyl)[Phe(4-COOH)]D[Phe(3-Me)]L[Bip]V[NMeA][dL]NLVSCGE[AEEA][γGlu][AEEA][Aun]-OH; thioether N-14) | 67.7 |

Continued, values first:

| IC50 [nM] | SMILES |
| --- | --- |
| 16.9 | CC(C)C[C@H]1NC(=O)[C@H](C)N(C)C(=O)[C@H](Cc2ccc(OCC(=O)O)cc2)NC(=O)[C@H](Cc2ccc(-c3ccccc3)cc2)NC(=O)[C@H](Cc2ccc(OCC(=O)O)cc2)NC(=O)[C@H](Cc2cccc(C(F)(F)F)c2)NC(=O)[C@H](CC(=O)O)NC(=O)[C@H](Cc2ccc(OCC(=O)O)cc2)NC(=O)[C@H]([C@@H](C)O)NC(=O)CSC[C@@H](C(=O)N[C@@H](CCN)C(=O)NCCOCCOCC(=O)NCCCCCCCCCCC(=O)O)NC(=O)[C@H](CCC(=O)O)NC(=O)[C@H](C(C)C)NC(=O)[C@H](CC2CCCCC2)NC(=O)[C@H](CCN)NC1=O [Example 1228] ({CH2CO}-TY(Carboxymethyl)D[Phe(3-CF3)]Y(Carboxymethyl)[Bip]Y(Carboxymethyl)[NMeA][dL][Dab][Cha]VEC[Dab][AEEA][Aun]-OH; thioether N-14) |
| 11.8 | Cc1cccc(C[C@@H]2NC(=O)[C@H](CC(=O)O)NC(=O)[C@H](Cc3ccc(OCC(=O)O)cc3)NC(=O)[C@H](Cc3ccc(OCC(=O)O)cc3)NC(=O)CSC[C@@H](C(=O)NC3(C(=O)NCCOCCOCC(=O)NCCCCCCCCCCC(=O)O)CC3)NC(=O)[C@H](CCCN)NC(=O)[C@H](C(C)C)NC(=O)[C@H](CC3CCCCC3)NC(=O)[C@H](CCN)NC(=O)[C@@H](CC(C)C)NC(=O)[C@H](C)N(C)C(=O)[C@H](Cc3ccc(O)cc3)NC(=O)[C@H](Cc3ccc(-c4ccccc4)cc3)NC(=O)[C@H](CC(C)C)NC2=O)c1 [Example 1251] ({CH2CO}-Y(Carboxymethyl)Y(Carboxymethyl)D[Phe(3-Me)]L[Bip]Y[NMeA][dL][Dab][Cha]V[Orn]C[Ac3c][AEEA][Aun]-OH; thioether N-14) |

Same assay, conditions: PE-labeled PD-L1-Ig 20 nM final, Jurkat-hPD-1 cells; read-out: Jurkat HPD1 PDL1 IC50

| IC50 [nM] | SMILES |
| --- | --- |
| 14.9 | Cc1cccc(C[C@@H]2NC(=O)[C@H](CC(=O)O)NC(=O)[C@H](Cc3ccc(C(=O)O)cc3)NC(=O)[C@H](C(C)O)NC(=O)CSC[C@@H](C(=O)N[C@@H](CCN)C(=O)NCCOCCOCC(=O)NCCCCCCCCCCC(=O)O)NC(=O)[C@H](CCC(=O)O)NC(=O)[C@H](C(C)C)NC(=O)[C@H](CC3CCCCC3)NC(=O)[C@H](CCN)NC(=O)[C@@H](CC(C)C)NC(=O)[C@H](C)N(C)C(=O)[C@H](Cc3ccc(C(=O)O)cc3)NC(=O)[C@H](Cc3ccc(-c4ccccc4)cc3)NC(=O)[C@H](Cc3ccc(C(=O)O)cc3)NC2=O)c1 (stereo partly drawn) [Example 2547] ({CH2CO}-[Thr(3ξ)][Phe(4-COOH)]D[Phe(3-Me)][Phe(4-COOH)][Bip][Phe(4-COOH)][NMeA][dL][Dab][Cha]VEC[Dab][AEEA][Aun]-OH; thioether N-14) |
| 12.5 | CC(C)C[C@H]1NC(=O)[C@H](C)N(C)C(=O)[C@H](CCCNC(N)=O)NC(=O)[C@H](Cc2ccc(-c3ccccc3)cc2)NC(=O)[C@H](C(C)C)NC(=O)[C@H](Cc2c[nH]c3ccccc23)NC(=O)[C@H](CC(=O)O)NC(=O)[C@H](Cc2ccc(OCC(=O)O)cc2)NC(=O)[C@H](Cc2ccc(OCC(=O)O)cc2)NC(=O)CSC[C@@H](C(=O)NCCOCCOCC(=O)NCCCCCCCCCCC(=O)O)NC(=O)[C@H](CO)NC(=O)[C@H](C(C)(C)O)NC(=O)[C@H](CC2CCCCC2)NC(=O)[C@H](CCN)NC1=O [Example 2456] ({CH2CO}-Y(Carboxymethyl)Y(Carboxymethyl)DWV[Bip][Cit][NMeA][dL][Dab][Cha][Val(3-OH)]SC[AEEA][Aun]-OH; thioether N-14) |
| 64.1 | CC(C)C[C@H]1NC(=O)[C@H](C)N(C)C(=O)[C@H](Cc2ccc(C(=O)O)cc2)NC(=O)[C@H](Cc2ccc(-c3ccccc3)cc2)NC(=O)[C@H](Cc2ccc(C(=O)O)cc2)NC(=O)[C@H](Cc2cccc(C(F)(F)F)c2)NC(=O)[C@H](CC(=O)O)NC(=O)[C@H](Cc2ccc(C(=O)O)cc2)NC(=O)[C@H](C(C)O)NC(=O)CSC[C@@H](C(=O)N[C@@H](CCN)C(=O)NCCOCCOCC(=O)NCCOCCOCC(=O)NCCCCCCCCCCCCC(=O)O)NC(=O)[C@H](CC(=O)O)NC(=O)[C@H](C(C)C)NC(=O)[C@H](CC2CCCCC2)NC(=O)[C@H](CCN)NC1=O (stereo partly drawn) [Example 2615] ({CH2CO}-[Thr(3ξ)][Phe(4-COOH)]D[Phe(3-CF3)][Phe(4-COOH)][Bip][Phe(4-COOH)][NMeA][dL][Dab][Cha]VDC[Dab][AEEA][AEEA]-{NH(CH2)12COOH}; thioether N-14) |
